According to publication PMC9102502, “The Influence of Selected Antipsychotic Drugs on Biochemical Aspects of Alzheimer’s Disease” (International Journal of Molecular Sciences, 2022):
Where two headings read alike, the source gives them in different places.

Experiments:
[1] = target: T1, BuChE (Homo sapiens, UniProt P06276); assay: Synergism of antipsychotics with donepezil/rivastigmine (binary mixtures), BuChE; conditions: ComboSyn;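 further: combination index derived by median-effect analysis of combined drug effects on the cholinesterase, with values below 1 meaning synergism, exactly 1 additivity and above 1 antagonism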
T1 sequence (P06276 29-602): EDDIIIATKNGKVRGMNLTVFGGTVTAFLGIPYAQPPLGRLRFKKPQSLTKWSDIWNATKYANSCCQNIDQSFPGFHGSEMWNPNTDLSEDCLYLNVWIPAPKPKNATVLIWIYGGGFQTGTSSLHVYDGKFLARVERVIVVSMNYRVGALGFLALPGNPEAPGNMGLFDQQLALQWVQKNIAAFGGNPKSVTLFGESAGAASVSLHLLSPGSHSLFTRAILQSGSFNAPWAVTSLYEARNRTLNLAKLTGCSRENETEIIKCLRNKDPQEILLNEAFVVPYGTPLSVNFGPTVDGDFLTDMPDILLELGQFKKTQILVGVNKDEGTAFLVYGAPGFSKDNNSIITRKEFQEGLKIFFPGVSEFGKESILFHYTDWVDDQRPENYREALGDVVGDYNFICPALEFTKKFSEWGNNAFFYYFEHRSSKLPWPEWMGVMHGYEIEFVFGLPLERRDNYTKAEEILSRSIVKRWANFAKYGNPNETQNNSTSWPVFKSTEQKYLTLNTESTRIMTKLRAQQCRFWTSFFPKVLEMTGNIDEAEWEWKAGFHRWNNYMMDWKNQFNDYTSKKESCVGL
Description: In turn, the concentrations of antipsychotics were constant in every measurement, and were chosen on the basis of estimated therapeutic plasma concentrations.
Automatic simulation of synergism and antagonism at all doses or effect levels is possible by computer software, based on algorithms. Calculation of the combination index (CI) and isobologram analyses enable to quantitatively determine drug interactions, where CI < 1, =1 and >1 indicate synergism, additive effect and antagonism, respectively. […] The software also allowed us to display the dose–effect curve, the median–effect plot and the dose-reduction index (DRI) plot [36].

[2] = tested on: human erythrocytes; conditions: 80 μg/L, AAPH 50 mmol/L
Protocol: The blood samples were centrifuged (3000 rpm, 10 min, 20 °C, Micro 22 R centrifuge, Hettich Zentrifugen, Tuttlingen, Germany) to separate erythrocytes from the plasma and washed three times with 0.9% saline (NaCl). […] The erythrocytes were suspended in 0.9% saline. As control of basal hemolysis, erythrocytes were incubated with 0.9% NaCl. For total hemolysis control erythrocytes were incubated with 2.0% v/v Triton X-100. Incubation with Triton X-100 and K4[Fe(CN)6] (at concentration 50 g/L) was performed to control methemoglobin (MetHb) formation. Moreover, an antioxidant control containing ascorbic acid (AA) at a concentration of 10 µg/mL was prepared, while AAPH at a concentration of 50 mmol/L was an oxidizing agent. Antipsychotics at concentrations equaling their maximum therapeutic plasma concentrations (TPCmax), as well as 5-fold higher (5 × TPCmax) and 5-fold lower than TPCmax (1/5 × TPCmax), and the oxidizing agent AAPH at a concentration of 50 mmol/L, were added to 2% RBC suspension. Controls and tested samples were incubated at 37 °C. […] The percentage of hemolysis was calculated with the following formula:Hemolysis (%) = (Asample/Atotal hemolysis) × 100%(1) where Asample—absorbance of the test sample; Atotal hemolysis—the absorbance of the reference sample with 2% Triton X solution, corresponding to complete hemolysis.

[3] = target: T2, human plasma butyrylcholinesterase (Homo sapiens, UniProt P06276); assay: BuChE inhibition, modified Ellman's method; format: biochemical; conditions: experimental data; mean ± SD, n = 6–9; read-out: IC50 BuChE
T2 construct: The solution of plasma 200-fold diluted with 0.9% NaCl; from tissue; host or cells: citrated plasma from blood of healthy human donors
T2 sequence (P06276 29-602): as above

[4] = target: T1, BuChE; assay: Kinetic parameters of enzymatic reaction (Hanes–Woolf), BuChE; format: biochemical; parameters: The solution of plasma 200-fold diluted with 0.9% NaCl; from tissue; host or cells: citrated plasma from blood of healthy human donors
Protocol: Kinetic parameters were obtained on the basis of three individual experiments carried out on different biological materials. For this purpose, various concentrations of substrates (ATC and BTC) were used in experiments. The type of inhibition and kinetic parameters of enzymatic reactions were obtained by linear regression using the Hanes–Woolf equations.
AChE SI (selectivity index) was calculated by using the following formula: SI = IC50 of BuChE/IC50 of AChE. However, BuChE SI was defined as IC50 of AChE/IC50 of BuChE. Maximal velocity (Vmax) and the Michaelis constant (Km) were calculated with the use of linear regression—according to the Hanes–Woolf plot.

[5] = target: T3, recombinant human β-amyloid (1–42) (Homo sapiens, UniProt P05067); assay: Beta-amyloid aggregation, Thioflavin T fluorescence; format: biochemical; conditions: 24 and 48 h; both tested concentrations
T3 construct: recombinant human β-amyloid (1–42; ultrapure); purchased Sigma-Aldrich (St. Louis, MO, USA)
T3 sequence (P05067 672-713 limits assumed): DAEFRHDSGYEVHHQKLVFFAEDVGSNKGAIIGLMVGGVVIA
Method in brief: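 Aβ42 (DMSO stock, pre-warmed 15 min at 37 °C) at 20 μmol/L final incubated with antipsychotics at TPC and 1/2 × TPC, with 5 µmol/L ThT added. Fluorescence (Ex/Em 440/484 nm, room temperature) read at 10, 30, 60, 90 min, 24 and 48 h; peptide-only control set as 100% aggregation.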

SMILES: OCCOCCN1CCN(C2=Nc3ccccc3Sc3ccccc32)CC1 [Quetiapine, quetiapine]
- CI (combination index), BuChE ([1]; donepezil 2 μmol/L + antipsychotic at TPCmax): 0.64
- CI (combination index), BuChE ([1]; donepezil 5 μmol/L + antipsychotic at TPCmax): 0.64
- CI (combination index), BuChE ([1]; donepezil 10 μmol/L + antipsychotic at TPCmax): 0.71
- CI (combination index), BuChE ([1]; donepezil 20 μmol/L + antipsychotic at TPCmax): 0.75
- CI (combination index), BuChE ([1]; donepezil 50 μmol/L + antipsychotic at TPCmax): 0.85
- CI (combination index), BuChE ([1]; rivastigmine 0.05 μmol/L + antipsychotic at TPCmax): 2.24
- CI (combination index), BuChE ([1]; rivastigmine 0.1 μmol/L + antipsychotic at TPCmax): 1.42
- RBCs hemolysis with AAPH ([2]; 5 h, AAPH control 53.4%): 23.9%
- RBCs hemolysis with AAPH ([2]; 24 h, AAPH control 45.9%): 51.9%
- IC50 [3]: 6.08 ± 1.63 µM
- Vmax(i) BuChE ([4]; compound at its IC50): 0.138 ± 0.058 A/min
- Vmax(i) BuChE ([4]; compound at ½ IC50): 0.239 ± 0.026 A/min
- type of inhibition of BuChE ([4]; from Km(i), Vmax(i) vs Km, Vmax, mixed inhibition): same type of inhibition
- effect on Aβ aggregation after a longer incubation time [5]: substantially inhibit
